Experimental data from article PMC9354243, “The Role of Tryptophan in π Interactions in Proteins: An Experimental Approach” (Journal of the American Chemical Society, 2022).
Read-outs that look alike come from different tables or passages of the source.

Assays:
LmrR labeled with 5MeW = LmrR labeled with 5MeW (Lactococcus lactis subsp. cremoris, UniProt A2RI36); assay: SPR binding of drugs to immobilized LmrR labeled with 5MeW; conditions: for Kd: Binding affinity, SPR, mean ± SD n = 3
Excerpt: (§1) LmrR binds different drugs including Dau and RBF.[19],[20] To investigate the importance of π–π interactions for drug binding, the electron density in the π electron cloud of W96 was modulated by progressive fluorination of the W96 indole side chain. The binding affinities of LmrR for Dau and RBF decreased upon increasing degrees of fluorination of W96 (Table 2, Figure S3). […] Dau behaved less extreme, with the kd […] 6-fold (Table 2).
(§2) The thermodynamics of the LmrR–Dau interaction was recently reported to be mostly entropy driven.[21] To investigate this point in more detail the temperature dependence of the LmrR–Dau interaction was studied by surface plasmon resonance (SPR) experiments at 10 and 25 °C. […] The average ΔΔG from 6 LmrR variants is around 0.1 kJ/mol. These values imply that the temperature effects on the ΔGs are negligible, which would be in line with a low contribution of entropic factors to the Dau–LmrR interaction.
(§3) The SPR assays can also inform on the kinetics of the LmrR-drug interaction, but for the assays at 25 °C, the kon and koff rates could not be analyzed properly, because the rates were too fast at those conditions. The koff rates increase when the electron density of the π-electron cloud in W96 decreases, in support of a sizable contribution of the π–π stacking interaction to the drug binding affinity. […]
(§4) MALDI-TOF. A purified LmrR solution (~6 mg/ml) was diluted to ~0.5 mg/ml with 100 mM NH4HCO3, and incubated with 5 µg/ml of trypsin during 2 h at 37 °C. 1 µl of digested LmrR was spotted, dried and quickly washed with 1 µl MilliQ water twice. Subsequently, 1 µl of matrix solution (10 mg/ml α- cyano-4-hydroxycinnamate (LaserBio Labs) in 50 % acetonitrile/0.1 % (v/v) trifluoroacetic acid) was spotted on top of the washed sample. Spots were measured using a Voyager DE-PRO MALDI-TOF (time of flight) instrument (Applied Biosystems). The incorporation efficiency of Trp analog was calculated after measuring the peak areas of the peptide conta ining either Trp or Trp analog.
(§5) Binding assays - surface plasmon resonance (SPR). LmrR and mutants were immobilized on a CM5 sensor chip and binding of drugs was monitored using a BIACORE3000 system. The binding responses of Dau and RBF to LmrR were measured in triplicate at both 25 °C and 10 °C, in HBS-EP running buffer (10 mM HEPES, pH 7.4, 150 mM NaCl, 50 µM EDTA, and 0.005% surfactant P-20). The binding responses were corrected by subtracting the response measured in the control lane, to which a […]
(§6) This protein, 4-oxalocrotonate tautomerase mutant Ala33Asp15 was a gift of J.-Y. van der Meer. Steady state responses after injection of serial dilutions of Dau and RBF were used for the determination of the dissociation constant (K d) values, using the BIAevaluation v.4.1 (GE Healthcare ) and GraphPad Prism v5.00 software . The One site-Total equation from GraphPad Prism software was used for the calculation of Kd as follows:
(§7) Y=Bmax*X/(Kd+X) + NS*X + Background . Equilibrium response Y is obtained at ligand concentration X.
(§8) Bmax represents the maximum specific binding response to the same sensorchip. NS is the slope of nonspecific binding in Y units divided by X units. […]
(§9) without addition of ligand. Binding free energies, ΔGs, were derived from the dissociation constant K d according to […].
(§10) Where possible, rate constants were determined using the BIAevaluation v.4.1 (GE Healthcare ) software. k off values were determined by fitting a 1:1 (Langmuir ) binding model . Each koff value is the average of 3 determinations.

W-LmrR = W-LmrR (Lactococcus lactis subsp. cremoris, UniProt A2RI36); assay: SPR binding of drugs to immobilized wild type LmrR (W-LmrR); conditions: for Contribution of the π–π interactions to the total binding energy: extrapolation with 4,5,6,7tetraFW as baseline; for Kd: W (wild type) LmrR, SPR, mean ± SD n = 3
Excerpt: as §1, §2, §3, §4, §5, §6, §7, §8, §9, §10

5FW-LmrR = 5FW-LmrR (Lactococcus lactis subsp. cremoris, UniProt A2RI36); assay: SPR binding of drugs to immobilized 5FW-LmrR; conditions: for Kd: Binding affinity, SPR, mean ± SD n = 3
Excerpt: as §1, §2, §3, §4, §5, §6, §7, §8, §9, §10

5,6diFW-LmrR = 5,6diFW-LmrR (Lactococcus lactis subsp. cremoris, UniProt A2RI36); assay: SPR binding of drugs to immobilized 5,6diFW-LmrR; conditions: for Kd: Binding affinity, Kd, 5,6diFW LmrR, SPR, mean ± SD n = 3
Excerpt: as §1, §2, §3, §4, §5, §6, §7, §8, §9, §10

5,6,7triFW-LmrR = 5,6,7triFW-LmrR (Lactococcus lactis subsp. cremoris, UniProt A2RI36); assay: SPR binding of drugs to immobilized 5,6,7triFW-LmrR; conditions: for Kd: Binding affinity, Kd, 5,6,7triFW LmrR, SPR, mean ± SD n = 3
Excerpt: as §1, §2, §3, §4, §5, §6, §7, §8, §9, §10

4,5,6,7tetraFW-LmrR = 4,5,6,7tetraFW-LmrR (Lactococcus lactis subsp. cremoris, UniProt A2RI36); assay: biochemical; type: binding; conditions: for Fold decrease of LmrR binding affinity, W-LmrR to 4,5,6,7tetraFW-LmrR: equals enhancement of affinity by π–π stacking; for Kd: Binding affinity, Kd, 4,5,6,7tetraFW LmrR, SPR, mean ± SD n = 3
Excerpt: LmrR binds different drugs including Dau and RBF.[19],[20] To investigate the importance of π–π interactions for drug binding, the electron density in the π electron cloud of W96 was modulated by progressive fluorination of the W96 indole side chain.
The thermodynamics of the LmrR–Dau interaction was recently reported to be mostly entropy driven.[21] To investigate this point in more detail the temperature dependence of the LmrR–Dau interaction was studied by surface plasmon resonance (SPR) experiments at 10 and 25 °C. […]
as §4, §5
This protein, 4-oxalocrotonate tautomerase mutant Ala33Asp15 was a gift of J.-Y. van der Meer. Steady state responses after injection

[1] = 5MeW LmrR, 25 °C, derived from Kd
[2] = 5FW LmrR, 25 °C, derived from Kd
[3] = 5,6diFW LmrR, 25 °C, derived from Kd
[4] = 5,6,7triFW LmrR, 25 °C, derived from Kd
[5] = 4,5,6,7tetraFW LmrR, 25 °C, derived from Kd

Chain of 5FW-LmrR (A2RI36 entry or part of it): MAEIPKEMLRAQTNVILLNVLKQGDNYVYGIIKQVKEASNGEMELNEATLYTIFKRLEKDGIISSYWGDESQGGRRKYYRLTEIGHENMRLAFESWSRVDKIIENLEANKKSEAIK
Chain of 5,6diFW-LmrR (A2RI36 entry or part of it): as above
Chain of 5,6,7triFW-LmrR (A2RI36 entry or part of it): as above
Chain of W-LmrR (A2RI36 entry or part of it): as above
Chain of 4,5,6,7tetraFW-LmrR (A2RI36 entry or part of it): as above
Chain of LmrR labeled with 5MeW (A2RI36 entry or part of it): as above

COc1cccc2c1C(=O)c1c(O)c3c(c(O)c1C2=O)C[C@@](O)(C(C)=O)C[C@@H]3O[C@H]1C[C@H](N)[C@H](O)[C@H](C)O1 [Dau, Daunomycin]
koff (LmrR labeled with 5MeW): 0.2 ± 0.04 s⁻¹ | ΔΔG, ΔG10 °C – ΔG25 °C (LmrR labeled with 5MeW; 5MeW LmrR): –1.1 kJ/mol | Free energy of ligand binding ΔG10 °C (LmrR labeled with 5MeW; 5MeW LmrR, 10 °C, derived from Kd): –37.8 kJ/mol | Free energy of ligand binding ΔG25 °C (LmrR labeled with 5MeW; [1]): –36.7 kJ/mol | Kd (LmrR labeled with 5MeW; 5MeW LmrR, 10 °C): 104 ± 5 nM | Kd (LmrR labeled with 5MeW; 5MeW LmrR, 25 °C): 370 ± 30 nM | koff (W-LmrR): 0.4 ± 0.07 s⁻¹ | Contribution of the π–π interactions as share of the total binding energy (W-LmrR; 25 °C): 13% | Contribution of the π–π interactions to the total binding energy (W-LmrR; 25 °C): -1.15 kcal/mol | Kd (W-LmrR; Binding affinity, Kd, 10 °C): 315 ± 40 nM | Kd (W-LmrR; Binding affinity, Kd, 25 °C): 450 ± 50 nM | ΔΔG, ΔG10 °C – ΔG25 °C (W-LmrR; W LmrR): 0.22 kcal/mol | Free energy of ligand binding ΔG10 °C (W-LmrR; W LmrR, 10 °C, derived from Kd): –35.2 kJ/mol | Free energy of ligand binding ΔG25 °C (W-LmrR; W LmrR, 25 °C, derived from Kd): –36.2 kJ/mol | koff (5FW-LmrR): 0.6 ± 0.001 s⁻¹ | ΔΔG, ΔG10 °C – ΔG25 °C (5FW-LmrR; 5FW LmrR): 0.22 kcal/mol | Free energy of ligand binding ΔG10 °C (5FW-LmrR; 5FW LmrR, 10 °C, derived from Kd): –35.5 kJ/mol | Free energy of ligand binding ΔG25 °C (5FW-LmrR; [2]): –36.4 kJ/mol | Kd (5FW-LmrR; 5FW LmrR, 10 °C): 280 ± 40 nM | Kd (5FW-LmrR; 5FW LmrR, 25 °C): 430 ± 80 nM | ΔΔG, ΔG10 °C – ΔG25 °C (5,6diFW-LmrR; 5,6diFW LmrR): 0.048 kcal/mol | Free energy of ligand binding ΔG10 °C (5,6diFW-LmrR; 5,6diFW LmrR, 10 °C, derived from Kd): –33.9 kJ/mol | Free energy of ligand binding ΔG25 °C (5,6diFW-LmrR; [3]): –34.1 kJ/mol | Kd (5,6diFW-LmrR; 10 °C): 560 ± 50 nM | Kd (5,6diFW-LmrR; 25 °C): 1050 ± 60 nM | koff (5,6,7triFW-LmrR): 0.8 ± 0.1 s⁻¹ | ΔΔG, ΔG10 °C – ΔG25 °C (5,6,7triFW-LmrR; 5,6,7triFW LmrR): –0.4 kJ/mol | Free energy of ligand binding ΔG10 °C (5,6,7triFW-LmrR; 5,6,7triFW LmrR, 10 °C, derived from Kd): –33.7 kJ/mol | Free energy of ligand binding ΔG25 °C (5,6,7triFW-LmrR; [4]): –33.3 kJ/mol | Kd (5,6,7triFW-LmrR; 10 °C): 590 ± 60 nM | Kd (5,6,7triFW-LmrR; 25 °C): 1440 ± 100 nM | koff (4,5,6,7tetraFW-LmrR): 1.5 ± 0.09 s⁻¹ | ΔΔG, ΔG10 °C – ΔG25 °C (4,5,6,7tetraFW-LmrR; 4,5,6,7tetraFW LmrR): 0.072 kcal/mol | Free energy of ligand binding ΔG10 °C (4,5,6,7tetraFW-LmrR; 4,5,6,7tetraFW LmrR, 10 °C, derived from Kd): –31.3 kJ/mol | Free energy of ligand binding ΔG25 °C (4,5,6,7tetraFW-LmrR; [5]): –31.6 kJ/mol | Fold decrease of LmrR binding affinity, W-LmrR to 4,5,6,7tetraFW-LmrR (4,5,6,7tetraFW-LmrR; 25 °C): 6 fold | Kd (4,5,6,7tetraFW-LmrR; 10 °C): 1680 ± 70 nM | Kd (4,5,6,7tetraFW-LmrR; 25 °C): 2880 ± 500 nM

Cc1cc2nc3c(=O)[nH]c(=O)nc-3n(C[C@H](O)[C@H](O)[C@H](O)CO)c2cc1C [RBF, riboflavin]
Free energy of ligand binding ΔG25 °C (LmrR labeled with 5MeW; [1]): –36.6 kJ/mol | Kd (LmrR labeled with 5MeW; 5MeW LmrR, 25 °C): 380 ± 8 nM | Contribution of the π–π interactions as share of the total binding energy (W-LmrR; 25 °C): 29% | Contribution of the π–π interactions to the total binding energy (W-LmrR; 25 °C): -2.51 kcal/mol | Kd (W-LmrR; 25 °C, read-out: Binding affinity, Kd): 460 ± 50 nM | Free energy of ligand binding ΔG25 °C (W-LmrR; W LmrR, 25 °C, derived from Kd): –36.2 kJ/mol | Free energy of ligand binding ΔG25 °C (5FW-LmrR; [2]): –34.3 kJ/mol | Kd (5FW-LmrR; 5FW LmrR, 25 °C): 970 ± 50 nM | Free energy of ligand binding ΔG25 °C (5,6diFW-LmrR; [3]): –30.2 kJ/mol | Kd (5,6diFW-LmrR; 25 °C): 4990 ± 60 nM | Free energy of ligand binding ΔG25 °C (5,6,7triFW-LmrR; [4]): –29.0 kJ/mol | Kd (5,6,7triFW-LmrR; 25 °C): 8370 ± 200 nM | Free energy of ligand binding ΔG25 °C (4,5,6,7tetraFW-LmrR; [5]): –25.7 kJ/mol | Fold decrease of LmrR binding affinity, W-LmrR to 4,5,6,7tetraFW-LmrR (4,5,6,7tetraFW-LmrR; 25 °C): 70 fold | Kd (4,5,6,7tetraFW-LmrR; 25 °C): 33400 ± 16000 nM
